Data reported in patent US20110088107A1, “COMPOSITIONS AND METHODS FOR DERIVING OR CULTURING PLURIPOTENT CELLS” (priority 2009, published 2011).

Assays:
[1] = system: secondary transgenic MEF line (OSM); conditions: Lyssiotis et al., 2009; cited from earlier work
[2] = system: NOD blastocysts (ICM explants); test: NOD ES cell derivation from blastocysts in the presence of small molecules; type: cell-based, mouse (NOD/LtJ); conditions: NOD/LtJ blastocysts, mESM with the inhibitors
Excerpt: NOD/ShiLtJ were obtained from the Jackson laboratory and bred in specific-pathogen-free animal facility. Control MEFs were made from 129SvJae mice. Non-NOD ES lines derived used in this study as controls were derived from matings between 129SvJae or B6D2F1 mice. To derive ES lines, ICM explants were derived from day 3.5 blastocysts following procedures previously described (Markoulaki et al., 2008). Where applicable, ES derivation medium was also supplemented with the indicated compounds (Table S2). Dissociation of the outgrowths by treatment with Trypsin was performed on day 5 after plating and the cells were further cultured in mESC derivation medium until colonies appeared (typically after 5-7 days). From then on, established ES lines were cultured in mESM condition supplemented with the indicated compounds. NOD […] ES lines were derived by similarly plating blastocysts in EpiSC-derivation medium (For 100 ml, we added 15 ml FBS (Hyclone), 5 ml KSR, 5 μl Lif (1×107 U ESGRO/ml; Chemicon), 100 μl Mek1 inhibitor (PD98059; Cell Signaling Technology), hFGF2 ([…]), 1 ml non-essential amino acids, 1 ml glutamine solution, and 1 ml pen/strep solution into DMEM/F12). ICM outgrowths were manually passaged after 5-7 days and were stably maintained in […] conditions. […]

SMILES: O=C1Cc2c([nH]c3ccc(Br)cc23)-c2ccccc2N1 [Kenpaullone, 9-bromo-7,12-dihydroindolo[3,2-d][1]benzazepin-6(5H)-one]
- replacement of Klf4 during iPS reprogramming [1]: replaces Klf4 during iPS reprogramming
- # of ES lines derived [2]: 2
- ES derivation (% efficiency) [2]: (13%)
